Legend:
[1] = tested on: multicellular canine atrial preparations; assay: Action potential recording with standard microelectrodes in multicellular canine atrial preparations (LA and PV); conditions: for APD90 / APD25 / APD50: after tertiapin-Q (200 nM per table title); for APD90: atropine present, 2 Hz
Experimental: Adult mongrel dogs of either sex (weighing about 20-35 kg) were anaesthetized with pentobarbital (30 mg kg^−1 I.V.) and artificially ventilated with room air. Hearts and adjacent lung tissue were relatively quickly excised through a left lateral thoracotomy and immersed in oxygenated Tyrode solution (composition detailed hereinbelow) at room temperature. Removal of the heart and lungs produced circulatory arrest, resulting in relatively effective and relatively humane killing. A left atrial (LA) preparation with the PVs intact was perfused via the left circumflex coronary artery, and subjected to either standard fine-tipped microelectrode recording of action potentials (APs) or cardiomyocyte isolation with collagenase-containing solutions, as previously described (Ehrlich et al. 2003). Six dogs were subjected to atrial tachycardia-induced remodeling induced by 1 week of atrial pacing at about 400 beats min^−1 after ablation of the AV node, as described in Li et al. 1999. Animal care and handling procedures followed the guidelines of the Canadian Council on Animal Care.
To isolate LA and PV cardiomyocytes, the proximal circumflex artery was cannulated and the distal ends of PV myocardial sleeves (approximately 1-1.5 cm from the PV-LA junction) were marked with silk thread prior to subsequent enzyme perfusion with collagenase (100 U ml^−1, Worthington, type II), in order to facilitate localization of PV sleeves after enzymatic digestion. […] With this method, PVs were relatively well-perfused and single cardiomyocytes could be isolated from all veins. Cardiomyocytes obtained from PVs were morphologically similar to LA cardiomyocytes isolated from the LA free wall in the same dogs. All comparisons were based on PV and LA cardiomyocytes isolated from each dog on each experimental day. After isolation, cells were stored at 4° C. and studied on the same day. For standard microelectrode experiments, intact tissue preparations including the LA and adjacent PVs were mounted in a chamber and perfused via the circumflex artery with oxygenated Krebs solution at 36±0.5° C. (see for example Kneller et al. 2002).
Fine-tipped microelectrodes (resistance 15-20 M when filled with 3 M KCl) coupled to a high input-impedance amplifier were used to record APs as described in Kneller et al. 2002.
Tyrode solution contained (mM): NaCl 136, KCl 5.4, MgCl2 1, CaCl2 1, NaH2PO4 0.33, Hepes 5 and dextrose 10 (pH 7.35 with NaOH). The cell-storage solution contained (mM): KCl 20, KH2PO4 10, dextrose 10, mannitol 40, L-glutamic acid 70, β-OH-butyric acid 10, taurine 20, EGTA 10 and 0.1% bovine serum albumin (pH 7.3, KOH). Nifedipine (5 μM) was used to suppress L-type Ca^2+ current (ICa) in all experiments. 4-Aminopyridine (4-AP, 2 mM) was added to suppress transient outward current (Ito). […] Na+ current (INa) contamination was avoided by using a HP of −40 mV for recording of hyperpolarization-induced currents and by substitution of equimolar Tris-HCl for external NaCl for tail-current recordings. When different external K^+ concentrations were applied, the osmolarity was kept constant by proportionate reduction of NaCl content in the solution. The standard internal solution contained (mM): potassium aspartate 110, KCl 20, MgCl2 1, MgATP 5, GTP (lithium salt) 0.1, Hepes 10, sodium phosphocreatine 5 and EGTA 5.0 (pH 7.3 with KOH). In experiments with K+-free internal solution, potassium aspartate was replaced by equimolar caesium aspartate and KCl by CsCl and pH was set to 7.3 with CsOH. For standard-microelectrode experiments, a solution containing (mM): NaCl 120, KCl 4, KH2PO4 1.2, MgSO4 1.2, NaHCO3 25, CaCl2 1.25 and dextrose 5 (95% O2-5% CO2, pH 7.4) was used to perfuse the tissue.
FIGS. 5E and F show representative APs before and after 100 nM tertiapin-Q in LA and PV.

AT-remodeled canine LA = assay: Action potential duration in AT-remodeled canine LA preparations; conditions: for effect on action potential duration (in words): AT-remodeled canine LA
Experimental: Adult dogs were divided into control and AT groups. AT dogs were initially anesthetized with diazepam (0.25 mg/kg IV), ketamine (5.0 mg/kg IV), and halothane (1% to 2%) for transvenous insertion of right ventricular (RV) and right atrial (RA) unipolar pacing leads connected to ventricular and atrial pacemakers implanted in the neck. Pacing began 24 hours after pacemaker implantation. AV block was created by radiofrequency catheter ablation and the RV demand-pacemaker was programmed to 80 bpm. The RA was then tachypaced (400 bpm) for 7-13 days.
On study days, dogs were anesthetized with pentobarbital (30 mg·kg^−1 I.V.) and artificially ventilated. Hearts and adjacent lung tissue were excised via a left thoracotomy and immersed in oxygenated Tyrode solution. For cell isolation, the proximal circumflex coronary artery was cannulated and distal ends of PV myocardial sleeves were marked with silk thread prior to enzyme perfusion with collagenase (100 U mL^−1, Worthington, type II), to facilitate identification after enzymatic digestion. PVs were well-perfused and single cardiomyocytes were isolated from all PVs. After isolation, cells were stored at 4° C. and studied within 12 hours.
For standard-microelectrode experiments and atrial-tachyarrhythmia induction, intact tissue preparations including the LA and adjacent PVs were mounted in a Plexiglas chamber and perfused via the left circumflex coronary artery with oxygenated Kreb's solution at 36±0.5° C. Fine-tipped microelectrodes (resistance 15-20 MΩ when filled with 3-mol/L KCL) coupled to a high-input impedance amplifier were used to record Action Potentials.
Table 1 quantifies this increase in duration by presenting the time required for action potentials in 8 dogs to reach 90%, 50% and 25% repolarization. Results are averages over 24 and 23 action potentials respectively for the pre-TQ data and the post-TQ data.

IKs = IKs (Homo sapiens, UniProt P51787); conditions: at concentrations of 8 to 30 nM; cited from earlier work
IKATP = IKATP (Homo sapiens, UniProt Q14654); conditions: at concentrations of 8 to 30 nM; cited from earlier work
Chain of IKATP (Q14654 whole entry, species assumed): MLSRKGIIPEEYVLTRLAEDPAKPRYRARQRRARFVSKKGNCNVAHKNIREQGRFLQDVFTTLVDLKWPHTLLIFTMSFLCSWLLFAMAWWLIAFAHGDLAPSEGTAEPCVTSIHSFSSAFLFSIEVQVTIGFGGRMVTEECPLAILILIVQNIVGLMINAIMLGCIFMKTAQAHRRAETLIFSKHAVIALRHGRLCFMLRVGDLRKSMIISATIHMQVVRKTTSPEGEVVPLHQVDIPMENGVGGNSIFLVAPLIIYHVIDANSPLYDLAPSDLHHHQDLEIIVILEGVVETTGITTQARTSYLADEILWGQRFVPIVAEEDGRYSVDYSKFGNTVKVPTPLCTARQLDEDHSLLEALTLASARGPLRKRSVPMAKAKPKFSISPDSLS
Chain of IKATP (O60706 whole entry partner, species assumed): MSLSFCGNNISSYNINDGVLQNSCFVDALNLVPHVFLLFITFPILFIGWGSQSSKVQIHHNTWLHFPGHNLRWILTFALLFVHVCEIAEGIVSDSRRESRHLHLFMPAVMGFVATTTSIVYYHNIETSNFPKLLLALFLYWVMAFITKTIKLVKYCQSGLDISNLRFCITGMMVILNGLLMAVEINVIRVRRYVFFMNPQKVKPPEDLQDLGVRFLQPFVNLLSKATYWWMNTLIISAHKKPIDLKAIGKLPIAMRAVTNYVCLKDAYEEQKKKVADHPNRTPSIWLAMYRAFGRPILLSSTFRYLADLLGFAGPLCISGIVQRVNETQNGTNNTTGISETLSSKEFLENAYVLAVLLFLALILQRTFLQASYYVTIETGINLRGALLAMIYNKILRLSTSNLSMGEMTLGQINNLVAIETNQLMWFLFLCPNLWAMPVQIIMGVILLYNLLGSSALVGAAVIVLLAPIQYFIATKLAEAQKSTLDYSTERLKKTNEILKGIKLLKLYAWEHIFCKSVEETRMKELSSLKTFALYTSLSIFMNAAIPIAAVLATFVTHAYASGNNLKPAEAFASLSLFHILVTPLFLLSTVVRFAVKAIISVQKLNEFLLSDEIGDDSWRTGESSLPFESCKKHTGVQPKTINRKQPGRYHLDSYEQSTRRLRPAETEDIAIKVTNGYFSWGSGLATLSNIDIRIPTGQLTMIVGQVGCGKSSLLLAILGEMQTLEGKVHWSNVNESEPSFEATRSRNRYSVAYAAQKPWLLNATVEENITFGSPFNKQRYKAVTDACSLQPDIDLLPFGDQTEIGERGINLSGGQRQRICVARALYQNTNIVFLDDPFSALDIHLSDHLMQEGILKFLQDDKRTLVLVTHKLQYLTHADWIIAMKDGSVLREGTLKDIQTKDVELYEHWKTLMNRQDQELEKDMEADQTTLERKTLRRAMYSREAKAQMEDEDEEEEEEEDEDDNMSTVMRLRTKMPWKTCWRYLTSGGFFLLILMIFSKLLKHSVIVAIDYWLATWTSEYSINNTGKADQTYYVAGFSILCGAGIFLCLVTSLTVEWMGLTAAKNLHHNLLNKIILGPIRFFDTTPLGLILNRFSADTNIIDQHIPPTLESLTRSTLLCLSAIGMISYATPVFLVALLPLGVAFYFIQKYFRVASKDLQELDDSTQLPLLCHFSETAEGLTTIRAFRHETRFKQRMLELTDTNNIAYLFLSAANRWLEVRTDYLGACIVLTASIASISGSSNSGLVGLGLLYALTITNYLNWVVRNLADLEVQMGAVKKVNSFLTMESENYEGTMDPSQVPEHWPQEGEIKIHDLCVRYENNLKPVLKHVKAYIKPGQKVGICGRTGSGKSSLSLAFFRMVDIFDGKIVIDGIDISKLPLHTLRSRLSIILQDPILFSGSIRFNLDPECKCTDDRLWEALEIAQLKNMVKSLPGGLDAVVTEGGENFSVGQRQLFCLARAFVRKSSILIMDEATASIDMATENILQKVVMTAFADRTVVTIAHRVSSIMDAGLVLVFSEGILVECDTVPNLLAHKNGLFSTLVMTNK

In the case of tertiapin-Q, the “effect on AP duration in LA and PV (in words)” value ([1]; 100 nM tertiapin-Q, 200 nM atropine) is reported as “significantly prolonged”, the APD90 ([1]; LA, control 202.6 ± 2.6) is reported as 242.7 ± 6.2 ms and the APD25 ([1]; LA, control 78.1 ± 2.8) is reported as 84.7 ± 4.0 ms. It also gave an APD50 ([1]; LA, control 130.2 ± 4.0) of 146.8 ± 3.2 ms, an APD90 ([1]; PV, control 190.4 ± 4.3) of 234.2 ± 9.9 ms and an APD25 ([1]; PV, control 71.3 ± 3.4) of 86.1 ± 5.0 ms. It also gave an APD50 ([1]; PV, control 104.0 ± 3.8) of 126.8 ± 6.9 ms, an APD25 (AT-remodeled canine LA; 2 Hz, AT-remodeled preparations, post-TQ, pre-TQ 15.9 ± 1.7) of 39.0 ± 2.5 ms and an APD50 (AT-remodeled canine LA; 2 Hz, AT-remodeled preparations, post-TQ, pre-TQ 44.4 ± 2.3) of 87.4 ± 2.7 ms. The APD90 (AT-remodeled canine LA; 2 Hz, AT-remodeled preparations, post-TQ, pre-TQ 100.1 ± 2.6) was 162.2 ± 4.2 ms, the “effect on action potential duration (in words)” value (AT-remodeled canine LA) was “greatly increases” and the “effect on action potential duration (in words)” value (AT-remodeled canine LA; listed as TQ) was “prominently increased”. The “effect on IKs (in words)” value (IKs) was “no effect” and the “effect on IKATP (in words)” value (IKATP) was “no effect”.

From patent publication US20060094003A1, “Acetylcholine-dependent current as a novel ionic target for atrial fibrillation” (priority 2004, published 2006)
